The values below are quoted from earlier work in US8163312B2, “Herbal formulation for prevention and treatment of diabetes and associated complications” (Innoveda Biological Solutions (P) Ltd., priority 2008, dated 2012).

One series has as its target T1, PPAR-alpha (Homo sapiens, UniProt Q07869).
T1 construct: host or cells: human embryonic kidney 293 cells
T1 sequence (Q07869 1-468): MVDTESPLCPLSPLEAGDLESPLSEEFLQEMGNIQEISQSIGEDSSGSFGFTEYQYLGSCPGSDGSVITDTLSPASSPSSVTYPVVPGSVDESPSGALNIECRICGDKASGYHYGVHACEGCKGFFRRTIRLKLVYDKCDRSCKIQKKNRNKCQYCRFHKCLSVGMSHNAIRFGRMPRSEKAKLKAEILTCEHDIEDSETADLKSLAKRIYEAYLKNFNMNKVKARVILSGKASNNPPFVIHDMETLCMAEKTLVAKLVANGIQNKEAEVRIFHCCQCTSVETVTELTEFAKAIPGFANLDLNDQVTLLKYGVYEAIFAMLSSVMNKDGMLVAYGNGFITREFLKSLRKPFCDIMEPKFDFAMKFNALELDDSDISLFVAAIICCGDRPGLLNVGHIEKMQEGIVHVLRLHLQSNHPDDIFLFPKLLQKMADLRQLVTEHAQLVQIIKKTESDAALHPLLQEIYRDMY
Conditions: selective PPAR-alpha antagonist added.

Another series has as its system mice. Conditions: sanjoinine-A given as one unit.
In series [1] the test system is alloxan induced diabetic rats.

As to `CC(C)c1ccc2c(c1)c(SC(C)(C)C)c(CC(C)(C)C(=O)O)n2Cc1ccc(Cl)cc1` [MK-886], the “effects of SO extract and mangiferin on PPAR-alpha luciferase and lipoprotein lipase” value on PPAR-alpha is “completely suppressed”.
As for `CN(C)CCCN1c2ccccc2Sc2ccc(Cl)cc21` [chlorpromazine], the relative sedative potency in the series on mice is recorded as 5.
Take `COc1cc(/C=C/C(=O)CC(=O)/C=C/c2ccc(O)c(OC)c2)ccc1O` [curcumin]: in series [1], the “activity of SDH (sorbitol dehydrogenase)” value is recorded as “lowered significantly”; the “blood sugar, Hb and glycosylated hemoglobin levels” value is reported as “reduced”; the “oxidative stress (levels of TBRAS)” value is given as “reduced the oxidative stress”.
`COc1cc2ccnc3c2c(c1OC)-c1ccccc1C3=O` [lysicamine]: the relative sedative potency in the series on mice is reported as 6.5.
Consider `CC(C)C[C@@H]1NC(=O)[C@@H](NC(=O)[C@H](Cc2ccccc2)N(C)C)[C@H](C(C)C)Oc2ccc(cc2)/C=C\NC1=O` [sanjoinine-A], for which the relative sedative potency entry with mice was “one”.
Regarding sanjoinine-Ahl, the relative sedative potency in the series on mice was 3.
